Results taken from patent US8222278B2, “Treatment of attention-deficit/hyperactivity disorder” (Abbott Laboratories, priority 2008, dated 2012).

Tested on: adults with ADHD
Experiment: Study A: treatment-emergent adverse events (safety dataset)
Experimental: During each visit, blood pressure, heart rate, weight, medication accountability and tolerability, and adverse effects were assessed.
The safety dataset consisted of all subjects who took at least one dose of study drug. The reasons for discontinuation and the treatment-emergent adverse events were summarized by the treatment under which the discontinuation or event was reported.
Treatment-emergent adverse events were those that began or worsened following the first dose of study drug in Period 1. Adverse event monitoring was conducted at each study visit and until 30 days following discontinuation of study drug. Other routine safety assessments included vital signs, electrocardiograms, physical examinations, brief neurological examinations and laboratory tests.

SMILES: Clc1cc(N2C[C@@H]3CN[C@@H]3C2)cnc1Cl [ABT-894, 3-(5,6-Dichloro-pyridin-3-yl)-1S,5S-3,6-diazabicyclo[3.2.0]heptane]
- Any Adverse Event, % of subjects (ABT-894 1 mg QD, N = 46): (69.6) %
- Any Adverse Event, number of subjects (ABT-894 1 mg QD, N = 46): 32 subjects
- Decreased appetite, % of subjects (ABT-894 1 mg QD, N = 46): (0) %
- Decreased appetite, number of subjects (ABT-894 1 mg QD, N = 46): 0 subjects
- Diarrhea, % of subjects (ABT-894 1 mg QD, N = 46): (0) %
- Diarrhea, number of subjects (ABT-894 1 mg QD, N = 46): 0 subjects
- Dizziness, % of subjects (ABT-894 1 mg QD, N = 46): (4.3) %
- Dizziness, number of subjects (ABT-894 1 mg QD, N = 46): 2 subjects
- Dry mouth, % of subjects (ABT-894 1 mg QD, N = 46): (4.3) %
- Dry mouth, number of subjects (ABT-894 1 mg QD, N = 46): 2 subjects
- Fatigue, % of subjects (ABT-894 1 mg QD, N = 46): (4.3) %
- Fatigue, number of subjects (ABT-894 1 mg QD, N = 46): 2 subjects
- Feeling hot and cold, % of subjects (ABT-894 1 mg QD, N = 46): (0) %
- Feeling hot and cold, number of subjects (ABT-894 1 mg QD, N = 46): 0 subjects
- Feeling jittery, % of subjects (ABT-894 1 mg QD, N = 46): (0) %
- Feeling jittery, number of subjects (ABT-894 1 mg QD, N = 46): 0 subjects
- Headache, % of subjects (ABT-894 1 mg QD, N = 46): (8.7) %
- Headache, number of subjects (ABT-894 1 mg QD, N = 46): 4 subjects
- Lethargy, % of subjects (ABT-894 1 mg QD, N = 46): (0) %
- Lethargy, number of subjects (ABT-894 1 mg QD, N = 46): 0 subjects
- Muscle Strain, % of subjects (ABT-894 1 mg QD, N = 46): (6.5) %
- Muscle Strain, number of subjects (ABT-894 1 mg QD, N = 46): 3 subjects
- Nasal congestion, % of subjects (ABT-894 1 mg QD, N = 46): (0) %
- Nasal congestion, number of subjects (ABT-894 1 mg QD, N = 46): 0 subjects
- Nausea, % of subjects (ABT-894 1 mg QD, N = 46): (4.3) %
- Nausea, number of subjects (ABT-894 1 mg QD, N = 46): 2 subjects
- Parathesia, % of subjects (ABT-894 1 mg QD, N = 46): (0) %
- Parathesia, number of subjects (ABT-894 1 mg QD, N = 46): 0 subjects
- Sleep disturbances, % of subjects (ABT-894 1 mg QD, N = 46): (4.3) %
- Sleep disturbances, number of subjects (ABT-894 1 mg QD, N = 46): 2 subjects
- Somnolence, % of subjects (ABT-894 1 mg QD, N = 46): (13.0) %
- Somnolence, number of subjects (ABT-894 1 mg QD, N = 46): 6 subjects
- Upper RTI, % of subjects (ABT-894 1 mg QD, N = 46): (2.2) %
- Upper RTI, number of subjects (ABT-894 1 mg QD, N = 46): 1 subjects
- Vomiting, % of subjects (ABT-894 1 mg QD, N = 46): (0) %
- Vomiting, number of subjects (ABT-894 1 mg QD, N = 46): 0 subjects
- Any Adverse Event, % of subjects (ABT-894 2 mg QD, N = 42): (61.9) %
- Any Adverse Event, number of subjects (ABT-894 2 mg QD, N = 42): 26 subjects
- Decreased appetite, % of subjects (ABT-894 2 mg QD, N = 42): (0) %
- Decreased appetite, number of subjects (ABT-894 2 mg QD, N = 42): 0 subjects
- Diarrhea, % of subjects (ABT-894 2 mg QD, N = 42): (4.8) %
- Diarrhea, number of subjects (ABT-894 2 mg QD, N = 42): 2 subjects
- Dizziness, % of subjects (ABT-894 2 mg QD, N = 42): (9.5) %
- Dizziness, number of subjects (ABT-894 2 mg QD, N = 42): 4 subjects
- Dry mouth, % of subjects (ABT-894 2 mg QD, N = 42): (0) %
- Dry mouth, number of subjects (ABT-894 2 mg QD, N = 42): 0 subjects
- Fatigue, % of subjects (ABT-894 2 mg QD, N = 42): (2.4) %
- Fatigue, number of subjects (ABT-894 2 mg QD, N = 42): 1 subjects
- Feeling hot and cold, % of subjects (ABT-894 2 mg QD, N = 42): (0) %
- Feeling hot and cold, number of subjects (ABT-894 2 mg QD, N = 42): 0 subjects
- Feeling jittery, % of subjects (ABT-894 2 mg QD, N = 42): (0) %
- Feeling jittery, number of subjects (ABT-894 2 mg QD, N = 42): 0 subjects
- Headache, % of subjects (ABT-894 2 mg QD, N = 42): (11.9) %
- Headache, number of subjects (ABT-894 2 mg QD, N = 42): 5 subjects
- Lethargy, % of subjects (ABT-894 2 mg QD, N = 42): (0) %
- Lethargy, number of subjects (ABT-894 2 mg QD, N = 42): 0 subjects
- Muscle Strain, % of subjects (ABT-894 2 mg QD, N = 42): (0) %
- Muscle Strain, number of subjects (ABT-894 2 mg QD, N = 42): 0 subjects
- Nasal congestion, % of subjects (ABT-894 2 mg QD, N = 42): (0) %
- Nasal congestion, number of subjects (ABT-894 2 mg QD, N = 42): 0 subjects
- Nausea, % of subjects (ABT-894 2 mg QD, N = 42): (14.3) %
- Nausea, number of subjects (ABT-894 2 mg QD, N = 42): 6 subjects
- Parathesia, % of subjects (ABT-894 2 mg QD, N = 42): (0) %
- Parathesia, number of subjects (ABT-894 2 mg QD, N = 42): 0 subjects
- Sleep disturbances, % of subjects (ABT-894 2 mg QD, N = 42): (14.3) %
- Sleep disturbances, number of subjects (ABT-894 2 mg QD, N = 42): 6 subjects
- Somnolence, % of subjects (ABT-894 2 mg QD, N = 42): (0) %
- Somnolence, number of subjects (ABT-894 2 mg QD, N = 42): 0 subjects
- Upper RTI, % of subjects (ABT-894 2 mg QD, N = 42): (7.1) %
- Upper RTI, number of subjects (ABT-894 2 mg QD, N = 42): 3 subjects
- Vomiting, % of subjects (ABT-894 2 mg QD, N = 42): (2.4) %
- Vomiting, number of subjects (ABT-894 2 mg QD, N = 42): 1 subjects
- Any Adverse Event, % of subjects (ABT-894 4 mg BID, N = 46): (54.3) %
- Any Adverse Event, number of subjects (ABT-894 4 mg BID, N = 46): 25 subjects
- Decreased appetite, % of subjects (ABT-894 4 mg BID, N = 46): (0) %
- Decreased appetite, number of subjects (ABT-894 4 mg BID, N = 46): 0 subjects
- Diarrhea, % of subjects (ABT-894 4 mg BID, N = 46): (2.2) %
- Diarrhea, number of subjects (ABT-894 4 mg BID, N = 46): 1 subjects
- Dizziness, % of subjects (ABT-894 4 mg BID, N = 46): (2.2) %
- Dizziness, number of subjects (ABT-894 4 mg BID, N = 46): 1 subjects
- Dry mouth, % of subjects (ABT-894 4 mg BID, N = 46): (2.2) %
- Dry mouth, number of subjects (ABT-894 4 mg BID, N = 46): 1 subjects
- Fatigue, % of subjects (ABT-894 4 mg BID, N = 46): (8.7) %
- Fatigue, number of subjects (ABT-894 4 mg BID, N = 46): 4 subjects
- Feeling hot and cold, % of subjects (ABT-894 4 mg BID, N = 46): (0) %
- Feeling hot and cold, number of subjects (ABT-894 4 mg BID, N = 46): 0 subjects
- Feeling jittery, % of subjects (ABT-894 4 mg BID, N = 46): (0) %
- Feeling jittery, number of subjects (ABT-894 4 mg BID, N = 46): 0 subjects
- Headache, % of subjects (ABT-894 4 mg BID, N = 46): (8.7) %
- Headache, number of subjects (ABT-894 4 mg BID, N = 46): 4 subjects
